# Test results from PMC3827994, “Novel preclinical models of topical PrEP pharmacodynamics provide rationale for combination of drugs with complementary properties” (Retrovirology, 2013).
# Counter-ions that a name gives are not always drawn.
# Experiments:
# [1] = system: HIV-1Ba-L; assay: JT-CCR5 cells challenged with HIV-1Ba-L in the presence of drug (p24 ELISA); format: cell-based
# Experimental: (§1) JT-CCR5 T cells in 24-well plates (1×10^6 cells/well) were exposed to varying concentrations of drugs diluted in complete medium for 24 h. The cells were then washed with 10 mL of medium, medium containing 10% human seminal plasma (SP), or not washed and then washed cells were resuspended in complete medium prior to transfer to round-bottomed 96-well plates and exposed to 10^3 TCID50 (50% tissue culture infective dose) HIV-1Ba-L for 2 h. Plates were centrifuged at 500 g for 5 min and supernatants were removed prior to each of 3 washing steps with 200 μL of medium. Cells were subsequently cultured in 200 μL complete medium and HIV replication was assessed 6 d post-infection by measuring p24 antigen by ELISA [34].
# [2] = system: HIV-1Ba-L; assay: Intracellular drug retention: JT-CCR5 cells exposed to drug 24 h, washed with medium or 10% seminal plasma, then HIV-1Ba-L challenge; format: cell-based; conditions: for protection of washed cells at the highest concentrations tested: 10 and 100 μM, cells washed with medium or SP; for antiviral activity after washing cells with medium or SP prior to challenge: JT-CCR5, 24 h drug exposure, TDF at >= 0.1 μM
# Experimental: as §1
# [3] = system: HIV-1Ba-L; assay: Co-culture model: drug-exposed human ectocervical explants washed, minced, co-cultured with JT-CCR5 cells, HIV-1Ba-L challenge; format: cell-based
# Experimental: (§2) Cervical tissue was collected from pre-menopausal women undergoing therapeutic hysterectomies at the Albert Einstein–Montefiore Weiler Hospital (Bronx, NY, USA) under an IRB exempt protocol. Ectocervical tissue was cut into explants of approximately 3×3×3 mm prior to 24 h exposure to panel of unformulated drugs in 24-well plates. Extracellular free drug was removed by immersing explants in phosphate buffered saline (PBS) containing Ca^2+ before mincing explants into fragments smaller than 1 mm, which were resuspended in 200 μL complete medium and co-cultured with JT-CCR5 cells (1×10^5 cells/well) in triplicate wells of round-bottomed 96-well plates. Co-cultures were incubated at 37°C for 72 h to allow released drug to be transferred from the tissue to T cells prior to challenge with HIV-1Ba-L (approximately 10^3 TCID50). The inoculum was removed and co-cultured tissue and cells washed thrice with medium. HIV replication was assessed by measuring p24 levels by ELISA (Figure 2a).
# [4] = system: HIV-1Ba-L; assay: Parallel antiviral experiments with MVC in human PBMCs; format: cell-based; conditions: PHA-activated PBMCs; data not shown
# [5] = system: HIV; design: method as in PMID 16251317; conditions: drug present throughout the experiment ref 25; cited from earlier work
# [6] = system: HIV-1Ba-L; assay: Antiviral activity of macaque CVL in TZM-bl cells challenged with HIV-1Ba-L (luciferase); format: cell-based; conditions: CVL diluted 1:10 and 1:100, Days 7 and 14 post IVR insertion
# Experimental: TZM-bl cells were plated at 3x10^4/well and allowed to adhere overnight before exposure to 10^3 TCID50 HIV-1Ba-L in the presence of CVL diluted 1:10 and 1:100 in complete DMEM in triplicate wells. Virus and drugs were left in culture for 48 h at 37°C and then removed by washing once with 200 μl PBS. Cells were lysed in 100 μl luciferase cell culture lysis reagent (Promega) and stored at -80°C until assessed for luciferase activity using luciferase assay buffer (Promega). Alternatively, TZM-bl cells were plated at 5x10^3/well in polyester transwell™ inserts with 1.0 μm pore size (Corning) and exposed basolaterally to CVL diluted 1:20 in complete DMEM overnight before apical challenge with the CCR5-tropic subtype C HIV isolate 97USNG30 (0, 10 and 100 TCID50). Wells with luciferase activity above background average + 2 standard deviations (cells exposed to CVL but no virus) were considered positive. To avoid contamination, frozen CVL was Gamma-irradiated on dry ice (1KGy) prior to use.
# [7] = system: TZM-bl cells; assay: In vitro activity of IQP-0528 in TZM-bl cells; format: cell-based; conditions: not shown
# [8] = system: HIV-1Ba-L; assay: NHP cervical biopsies co-cultured with PHA-activated human PBMC, HIV-1Ba-L challenge (p24 ELISA); format: cell-based
# Experimental: as §2
# Proximal and distal biopsies were collected and placed in 200 μL of complete medium and shipped to the Herold laboratory at 4°C. Biopsies were minced without washing and co-cultured with activated human PBMC in the presence of culture medium used during transport. Challenge and assessment of HIV replication were performed as described for human cervical explant tissue (Figure 2a).
# [9] = pig, in vivo
# Experimental: A 14-day IQP-0528 IVR biodistribution study using pigtail macaque monkeys was performed following protocols approved by the CDC Institutional Animal Care and Use Committee according to the Guide for the Care and Use of Laboratory Animals as previously described [36]. Briefly, animals were anesthetized with ketamine (3-10 mg/kg) prior to all collection procedures. A total of six macaques were used with two animals receiving placebo IVR and four animals receiving IQP-0528 (10% w/w) IVR. A pediatric speculum and forceps were used to insert IVRs in the posterior vagina proximal to the ectocervix on day 0 and left in place for 14 days. Tissue samples were collected with biopsy forceps (Miltex Townsend # 30–1445) near the vaginal introitus (distal to the ring) and the ectocervix (proximal to the ring) and shipped at 4°C to the Herold laboratory overnight. CVL samples were obtained by washing the vaginal vault with 5 mL normal saline; CVL samples were divided into aliquots, shipped and stored at -80°C.
# IQP-0528 in biological samples was extracted and analyzed using LC-MS/MS at the Center for Human Toxicology (Utah). The lower limit of quantification (LLOQ) for this assay was 1 ng/mL of matrix. To convert weight/weight concentrations of IQP-0528 (nanograms IQP-0528 per milligram of vaginal fluid or tissue) to molarity (μM), vaginal fluid and tissue densities of 1.0 g/mL were assumed.
# [10] = explant treated ex vivo, washed, co-cultured with JT-CCR5
# [11] = Human immunodeficiency virus 1, 144 h; challenge in the presence of drug; means ± SEM; read-out: JT-CCR5 Infection IC50
# [12] = Human immunodeficiency virus 1, 144 h; challenge in the presence of drug; means ± SEM; read-out: JT-CCR5 Infection IC90
# [13] = Human immunodeficiency virus 1; drug concentration during 24 h explant exposure; means ± SEM; read-out: Co-culture JT-CCR5 & explant tissue IC50
# [14] = Human immunodeficiency virus 1; drug concentration during 24 h explant exposure; means ± SEM; read-out: Co-culture JT-CCR5 & explant tissue IC90
# [15] = macaques with 10% w/w IQP-0528 IVR, co-culture with human PBMC
compound,measurement,setting,value
Maraviroc [MVC],antiviral activity,"[1]; cells washed 2 h after viral inoculation, drug not re-added",only active in the low μM range
same,IC50,[1]; read-out: JT-CCR5 Infection IC50; challenge in the presence of drug; means ± SEM,1980 ± 850 nM
same,IC90,[1]; read-out: JT-CCR5 Infection IC90; challenge in the presence of drug; means ± SEM,54500 ± 13800 nM
same,protection of washed cells at the highest concentrations tested,[2],neither IQP-0528 or MVC completely protected the cells from infection
same,antiviral activity after washing cells with medium or SP prior to challenge,[2],significantly reduced
same,protection of co-cultured T cells by pretreated explant tissue,[3]; [10],failed to protect co-cultured T cells
same,IC50,[3]; read-out: Co-culture JT-CCR5 & explant tissue IC50; drug concentration during 24 h explant exposure; means ± SEM,> 100000 nM
same,IC90,[3]; read-out: Co-culture JT-CCR5 & explant tissue IC90; drug concentration during 24 h explant exposure; means ± SEM,> 100000 nM
same,antiviral activity in human PBMCs compared to JT-CCR5 cells,[4],no difference in the antiviral activity
same,antiviral activity,[5],low nanomolar range
"Cc1cc(C)c(Nc2ccnc(Nc3ccc(C#N)cc3)n2)c(C)c1 [DPV, Dapivirine]",IC50,[1]; [11],10 ± 10 nM
same,IC90,[1]; [12],30 ± 20 nM
same,HIV inhibition,"[2]; 1 μM, cells washed with SP prior to HIV challenge",failed to inhibit HIV infection
same,inhibition at 1 µM,"[2]; Human immunodeficiency virus 1, 1 μM, cells washed with medium alone, mean ± SEM, read-out: protection (HIV inhibition)",73.9 ± 13.8%
same,IC50,[3]; [13],400 ± 200 nM
same,IC90,[3]; [14],1100 ± 300 nM
same,protection of co-cultured T cells by pretreated explant tissue,[3]; [10],significant protection
"CC(C)OC(=O)OCOP(=O)(CO[C@H](C)Cn1cnc2c(N)ncnc21)OCOC(=O)OC(C)C [TDF, Tenofovir disoproxil fumarate]",IC50,[1]; [11],40 ± 10 nM
same,IC90,[1]; [12],130 ± 20 nM
same,antiviral activity after washing cells with medium or SP prior to challenge,[2],retained its antiviral activity
same,IC50,[3]; [13],> 10000 nM
same,IC90,[3]; [14],> 10000 nM
same,protection of co-cultured T cells by pretreated explant tissue,[3]; [10],not protected from viral infection
Cc1cc(C)cc(C(=O)c2c(C(C)C)c(=O)[nH]c(=O)n2CC2CC2)c1 [IQP-0528],IC50,[1]; challenge in the presence of drug; means ± SEM; read-out: JT-CCR5 Infection IC50,190 ± 70 nM
same,IC90,[1]; challenge in the presence of drug; means ± SEM; read-out: JT-CCR5 Infection IC90,430 ± 160 nM
same,protection of washed cells at the highest concentrations tested,[2],neither IQP-0528 or MVC completely protected the cells from infection
same,IC50,[3]; drug concentration during 24 h explant exposure; means ± SEM; read-out: Co-culture JT-CCR5 & explant tissue IC50,2900 ± 700 nM
same,IC90,[3]; drug concentration during 24 h explant exposure; means ± SEM; read-out: Co-culture JT-CCR5 & explant tissue IC90,10100 ± 700 nM
same,protection of co-cultured T cells by pretreated explant tissue,[3]; [10],significant protection
same,"protection in co-culture, fresh tissue vs tissue stored at -80°C",[3]; tissue fresh or frozen 24 h or 7 days after drug treatment,protective under all of these conditions
same,protection of TZM-bl cells challenged in the presence of CVL,[6],significantly protected from infection
same,in vitro IC90 in TZM-bl cells,[7],2.7 ng/mL
same,"viral inhibition, distal biopsies, day 7",[8]; [15],42.3%
same,"viral inhibition, distal biopsies, day 14",[8]; [15],59.2%
same,"viral inhibition, proximal biopsies, day 7",[8]; [15],53.0%
same,"viral inhibition, proximal biopsies, day 14",[8]; [15],71.7%
same,"viral inhibition, biopsies of ring-treated macaques (range)","[8]; proximal and distal biopsies, days 7 and 14",42-72%
same,"IQP-0528 concentration in CVL, D7, Mean ± SEM",[9],1360 ± 249 µg/mL
same,"IQP-0528 concentration in CVL, D14, Mean ± SEM",[9],940 ± 250 µg/mL
same,"IQP-0528 concentration in cervical tissue, Distal D7, Mean ± SEM",[9],0.85 ± 0.23 ng/mg of tissue
same,"IQP-0528 concentration in cervical tissue, Distal D14, Mean ± SEM",[9],14.65 ± 6.35 ng/mg of tissue
same,"IQP-0528 concentration in cervical tissue, Proximal D7, Mean ± SEM",[9],3.36 ± 1.36 ng/mg of tissue
same,"IQP-0528 concentration in cervical tissue, Proximal D14, Mean ± SEM",[9],28.08 ± 5.39 ng/mg of tissue
